# Source: patent publication US20090270342A1, “IMMUNOREGULATORY AGENT” (priority 2006, published 2009)
# Test system: Peyer's patch cells
# Assay: Production of IgA, IgG and cytokines by Peyer's patch cells of mice fed lactosucrose (Experiment 3)
# Type: in vivo
# Conditions: for IFN-γ produced by Peyer's patch cells / IL-4 produced by Peyer's patch cells / IL-6 produced by Peyer's patch cells / IgA produced by Peyer's patch cells / IgG produced by Peyer's patch cells / TGF-β produced by Peyer's patch cells / IL-10 produced by Peyer's patch cells: four weeks
# Protocol: In order to investigate what type of immunopathologically-mediated tissue exerts the enhancing effect on gut immunity, the amounts of IgA, IgG, and various cytokines were measured. Similarly as in Experiment 1, female BALB/c mice (six weeks old) were preliminary reared for one week on “AIN-93G”, the same standard purified diet as used in Experiment 1. Successively, “LS-90P”, a saccharide composition comprising 91.8% (w/w), on a dry solid basis, of lactosucrose commercialized by ENSUIKO Sugar Refining Co., Ltd., Tokyo, Japan, was incorporated into the above purified diet, in which corn starch equal to the amount of the saccharide composition comprising lactosucrose had been removed, to give a lactosucrose content of 2% (w/w) or 5% (w/w), and five mice/group were allowed to ingest the resulting test diet freely. Mice, allowed to ingest “AIN-93G”, as the standard purified diet, were used as control. At four weeks after starting the administration of the test diet, Peyer's patch and intestinal lymph nodes were respectively removed from the mice and cut using a scissor. Then, the resultants were respectively treated in 0.2% (w/v) aqueous collagenase solution at 37° C. for 30 min, and filtrated using a cell strainer to obtain cell suspensions. Each cell suspension was centrifuged to collect cells and the resulting cells were suspended into a 45% (v/v) solution of “PERCOLL”, commercialized by GE Healthcare, to make into a cell suspension. Each resulting suspension was successively placed on a 75% (v/v) “PERCOLL” solution and centrifuged at 1,000×g for 10 min. Cells in a boundary phase between 45% (v/v) and 75% (v/v) “PERCOLL” solution were collected and suspended in RPMI1640 medium comprising 10% FCS and 10 mM HEPES, and the cell concentration was adjusted to 1×10^6 cells/ml. The resulting cell suspension was placed in a 24-well plate to give one ml/well each. Then, 2 μg/ml of Concanavaline A (Con A) as a stimulator to T-cell or 10 μg/ml of lipopolysaccharide (LPS) as a stimulator to B-cell and macrophage cell was admixed with the cell suspension, and then the cells were cultured at 37° C. for 48 hours using 5% (v/v) carbon dioxide gas. A culture supernatant was collected from each well, and the amounts of IgA, IgG, IFN-γ, interleukin-4 (IL-4), IL-6, interleukin-10 (IL-10), and TGF-β were measured by ELISA using an anti-mouse IgA antibody, anti-mouse IgG antibody, anti-mouse IFN-γ antibody (commercialized by Pepro Tech EC. Ltd.), anti-mouse IL-4 antibody (commercialized by R&D Systems), anti-mouse IL-6 antibody (commercialized by R&D Systems), anti-mouse IL-10 antibody (commercialized by R&D Systems), and anti-mouse TGF-β antibody (commercialized by Promega Co., Wisconsin, USA), and the average values of those from five mice were determined. The results for Peyer's patch cells and intestinal lymph node cells are respectively in Tables 3 and 4. The percentages in parentheses in the tables mean a relative value to the amount of IgA, IgG, IFN-γ, IL-4, IL-6, IL-10 or TGF-β produced by Peyer's patch cells or intestinal lymph node cells from the control mice.
# [1] = Lactosucrose 2% (w/w) diet, Con A
# [2] = Lactosucrose 2% (w/w) diet, LPS
# [3] = Lactosucrose 5% (w/w) diet, Con A
# [4] = Lactosucrose 5% (w/w) diet, LPS
compound,measurement,setting,value
"OC[C@H]1O[C@@H](O[C@H]2[C@H](O)[C@@H](O)[C@@H](O[C@]3(CO)O[C@H](CO)[C@@H](O)[C@@H]3O)O[C@@H]2CO)[C@H](O)[C@@H](O)[C@H]1O [Lactosucrose, β-D-galactosyl-(1,4)-α-D-glucosyl-(1,2)-β-D-fructoside]",IFN-γ produced by Peyer's patch cells,[1],11 ± 5.0 ng/mL
same,IL-4 produced by Peyer's patch cells,[1],22 ± 0.58 pg/mL
same,IL-6 produced by Peyer's patch cells,[1],35 ± 14 pg/mL
same,IgA produced by Peyer's patch cells,[1],1.9 ± 0.49 µg/mL
same,IgG produced by Peyer's patch cells,[1],110 ± 28 ng/mL
same,TGF-β produced by Peyer's patch cells,[1],0.40 ± 0.24 ng/mL
same,IL-10 produced by Peyer's patch cells,"Lactosucrose 2% (w/w) diet, Con A, DL: Detection limit",Below DL*
same,IFN-γ produced by Peyer's patch cells,[2],1.2 ± 0.44 ng/mL
same,IL-4 produced by Peyer's patch cells,[2],15 ± 1.6 pg/mL
same,IL-6 produced by Peyer's patch cells,[2],250 ± 27 pg/mL
same,IL-10 produced by Peyer's patch cells,[2],200 ± 57 pg/mL
same,IgA produced by Peyer's patch cells,[2],1.9 ± 1.8 µg/mL
same,IgG produced by Peyer's patch cells,[2],110 ± 90 ng/mL
same,TGF-β produced by Peyer's patch cells,[2],1.3 ± 0.20 ng/mL
same,"IFN-γ produced by Peyer's patch cells, relative value to control","Lactosucrose 2% (w/w), Con A",(100%)
same,"IL-4 produced by Peyer's patch cells, relative value to control","Lactosucrose 2% (w/w), Con A",(105%)
same,"IL-6 produced by Peyer's patch cells, relative value to control","Lactosucrose 2% (w/w), Con A",(106%)
same,"IgA produced by Peyer's patch cells, relative value to control","Lactosucrose 2% (w/w), Con A",(127%)
same,"IgG produced by Peyer's patch cells, relative value to control","Lactosucrose 2% (w/w), Con A",(151%)
same,"TGF-β produced by Peyer's patch cells, relative value to control","Lactosucrose 2% (w/w), Con A",(133%)
same,"IFN-γ produced by Peyer's patch cells, relative value to control","Lactosucrose 2% (w/w), LPS",(146%)
same,"IL-4 produced by Peyer's patch cells, relative value to control","Lactosucrose 2% (w/w), LPS",(107%)
same,"IL-6 produced by Peyer's patch cells, relative value to control","Lactosucrose 2% (w/w), LPS",(114%)
same,"IL-10 produced by Peyer's patch cells, relative value to control","Lactosucrose 2% (w/w), LPS",(95%)
same,"IgA produced by Peyer's patch cells, relative value to control","Lactosucrose 2% (w/w), LPS",(216%)
same,"IgG produced by Peyer's patch cells, relative value to control","Lactosucrose 2% (w/w), LPS",(244%)
same,"TGF-β produced by Peyer's patch cells, relative value to control","Lactosucrose 2% (w/w), LPS",(100%)
same,IFN-γ produced by Peyer's patch cells,[3],21 ± 13 ng/mL
same,IL-4 produced by Peyer's patch cells,[3],20 ± 0.74 pg/mL
same,IL-6 produced by Peyer's patch cells,[3],84 ± 39 pg/mL
same,IgA produced by Peyer's patch cells,[3],4.5 ± 2.6 µg/mL
same,IgG produced by Peyer's patch cells,[3],270 ± 120 ng/mL
same,TGF-β produced by Peyer's patch cells,[3],0.66 ± 0.13 ng/mL
same,IL-10 produced by Peyer's patch cells,"Lactosucrose 5% (w/w) diet, Con A, DL: Detection limit",Below DL*
same,IFN-γ produced by Peyer's patch cells,[4],3.0 ± 2.1 ng/mL
same,IL-4 produced by Peyer's patch cells,[4],14 ± 0.88 pg/mL
same,IL-6 produced by Peyer's patch cells,[4],470 ± 250 pg/mL
same,IL-10 produced by Peyer's patch cells,[4],160 ± 56 pg/mL
same,IgA produced by Peyer's patch cells,[4],7.0 ± 4.0 µg/mL
same,IgG produced by Peyer's patch cells,[4],370 ± 150 ng/mL
same,TGF-β produced by Peyer's patch cells,[4],1.2 ± 0.090 ng/mL
same,"IFN-γ produced by Peyer's patch cells, relative value to control","Lactosucrose 5% (w/w), Con A",(191%)
same,"IL-4 produced by Peyer's patch cells, relative value to control","Lactosucrose 5% (w/w), Con A",(95%)
same,"IL-6 produced by Peyer's patch cells, relative value to control","Lactosucrose 5% (w/w), Con A",(255%)
same,"IgA produced by Peyer's patch cells, relative value to control","Lactosucrose 5% (w/w), Con A",(300%)
same,"IgG produced by Peyer's patch cells, relative value to control","Lactosucrose 5% (w/w), Con A",(370%)
same,"TGF-β produced by Peyer's patch cells, relative value to control","Lactosucrose 5% (w/w), Con A",(220%)
same,"IFN-γ produced by Peyer's patch cells, relative value to control","Lactosucrose 5% (w/w), LPS",(366%)
same,"IL-4 produced by Peyer's patch cells, relative value to control","Lactosucrose 5% (w/w), LPS",(100%)
